Test results: patent publication US11766425B2, “Antibiotic combination therapies” (BIOVERSYS AG, priority 2019, dated 2023)
Like-named read-outs stand apart in the source and are kept apart here.

Tests used:
Type in all cases: cell-based, Acinetobacter baumannii
[1] = test system: panel of MDR clinical isolates of A. baumannii
Method: (§1) Checkerboards were performed according to the CLSI parameters used for microbroth dilution MIC5. CA-MHB, iron-depleted CA-MHB (ID-CA-MHB) or RPMI supplemented with 10% FCS medium were used as specified and ID-CA-MHB was prepared according to CLSI guidelines. […] FICI is calculated as follows: […]

A. baumannii UNT191-1 = experiment: broth microdilution checkerboard MIC/synergy
Summary of the method: (§2)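 CLSI microbroth MIC parameters; checkerboard format. Media as specified: CA-MHB / ID-CA-MHB (CLSI prep) / RPMI + 10% FCS. Output = FICI.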

A. baumannii UNT238-1 = experiment: broth microdilution checkerboard MIC/synergy; details: strain UNT238-1
Summary of the method: as §2

A. baumannii IHMA867231 = experiment: broth microdilution checkerboard MIC/synergy; details: for MIC: Acinetobacter baumannii, IHMA867231, strain IHMA867231, read-out: MICs alone
Summary of the method: as §2

A. baumannii IHMA1013816 = experiment: broth microdilution checkerboard MIC/synergy; details: strain IHMA1013816
Summary of the method: as §2

A. baumannii UNT239-1 = experiment: broth microdilution checkerboard MIC/synergy; details: strain UNT239-1
Summary of the method: as §2

A. baumannii HUMC1 = experiment: broth microdilution checkerboard MIC/synergy; details: strain HUMC1
Summary of the method: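 Checkerboard combinations followed CLSI broth microdilution MIC parameters. Medium was CA-MHB, iron-depleted CA-MHB (prepared per CLSI) or RPMI with 10% FCS, as specified for each test. Interaction was expressed as the fractional inhibitory concentration index (FICI).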

A. baumannii 402608-17 = experiment: broth microdilution checkerboard MIC/synergy; details: for MIC: Acinetobacter baumannii, 40260817, strain 402608-17, read-out: MICs alone
Summary of the method: as §2

A. baumannii 401046-18 = experiment: broth microdilution checkerboard MIC/synergy; details: for MIC: Acinetobacter baumannii, 40104618, strain 401046-18, read-out: MICs alone
Summary of the method: as §2

A. baumannii IHMA690517 = experiment: broth microdilution checkerboard MIC/synergy; details: strain IHMA690517
Summary of the method: as §2

A. baumannii IHMA863866 = experiment: broth microdilution checkerboard MIC/synergy; details: strain IHMA863866
Summary of the method: as §2

A. baumannii UNT087-1 = experiment: broth microdilution checkerboard MIC/synergy
Summary of the method: as §2

A. baumannii UNT091-1 = experiment: broth microdilution checkerboard MIC/synergy
Summary of the method: as §2

A. baumannii 402292-17 = experiment: broth microdilution checkerboard MIC/synergy; details: for MIC: Acinetobacter baumannii, 40229217, strain 402292-17, read-out: MICs alone
Summary of the method: as §2

A. baumannii 401255-18 = experiment: broth microdilution checkerboard MIC/synergy; details: for MIC: Acinetobacter baumannii, 40125518, strain 401255-18, read-out: MICs alone
Summary of the method: as §2

A. baumannii IHMA919656 = experiment: broth microdilution checkerboard MIC/synergy; details: strain IHMA919656
Summary of the method: as §2

A. baumannii ACC00535 = experiment: broth microdilution checkerboard MIC/synergy; details: strain ACC00535; rifabutin/SPR741 in combination
Summary of the method: as §2

[2] = test system: A. baumannii LAC-4 strain; experiment: broth microdilution checkerboard MIC/synergy; details: strain LAC-4
Method: as §1
The checkerboards were performed in CA-MHB or ID-CA-MHB for cefiderocol.

[3] = rifabutin/SPR741 in combination
[4] = rifabutin/cefiderocol in combination, ID-CA-MHB
[5] = rifabutin/colistin in combination, CA-MHB
[6] = antibiotic alone, rifabutin/cefiderocol checkerboard
[7] = antibiotic alone, rifabutin/colistin checkerboard, CA-MHB
[8] = rifabutin alone, rifabutin/SPR741 checkerboard
[9] = rifabutin/cefiderocol in combination

CO[C@H]1/C=C/O[C@@]2(C)Oc3c(C)c(O)c4c(c3C2=O)C2=NC3(CCN(CC(C)C)CC3)NC2=C(NC(=O)/C(C)=C\C=C\[C@H](C)[C@H](O)[C@@H](C)[C@@H](O)[C@@H](C)[C@H](OC(C)=O)[C@@H]1C)C4=O [Rifabutin, rifabutin]
0.125 to 2 mg/L: rifabutin combination MICs ([1]; in combination with SPR741, most of the strains)
2 mg/L: MICs combi (A. baumannii UNT238-1; [5]) | MICs combi (A. baumannii IHMA867231; strain IHMA867231, rifabutin/colistin in combination, CA-MHB) | MICs combi / in combination (A. baumannii IHMA1013816; [3]) | MICs combi / in combination (A. baumannii 402608-17; strain 402608-17, rifabutin/SPR741 in combination) | MICs combi (A. baumannii 402608-17; strain 402608-17, rifabutin/colistin in combination, CA-MHB) | MICs combi / in combination (A. baumannii 401046-18; strain 401046-18, rifabutin/SPR741 in combination) | MICs combi / in combination (A. baumannii IHMA863866; [3]) | MICs combi (A. baumannii UNT091-1; strain UNT091-1, rifabutin/cefiderocol in combination) | MICs combi / in combination (A. baumannii 402292-17; strain 402292-17, rifabutin/SPR741 in combination) | MICs combi / in combination (A. baumannii 401255-18; strain 401255-18, rifabutin/SPR741 in combination) | MICs combi (A. baumannii 401255-18; strain 401255-18, rifabutin/colistin in combination, CA-MHB)
64 µg/mL: MIC (A. baumannii 401046-18; [7])
16 µg/mL: MIC (A. baumannii UNT191-1; Acinetobacter baumannii, UNT1911, strain UNT191-1, antibiotic alone, rifabutin/colistin checkerboard, CA-MHB, read-out: MICs alone) | MIC (A. baumannii UNT087-1; Acinetobacter baumannii, UNT0871, strain UNT087-1, antibiotic alone, rifabutin/colistin checkerboard, CA-MHB, read-out: MICs alone)
16 mg/L: MICs combi (A. baumannii 401046-18; strain 401046-18, rifabutin/cefiderocol in combination, ID-CA-MHB) | MICs combi (A. baumannii 401255-18; strain 401255-18, rifabutin/cefiderocol in combination)
128 mg/L: MICs combi (A. baumannii IHMA867231; strain IHMA867231, rifabutin/cefiderocol in combination) | MICs combi (A. baumannii 402292-17; strain 402292-17, rifabutin/cefiderocol in combination)
>32 mg/L: MICs combi / in combination (A. baumannii IHMA867231; strain IHMA867231, rifabutin/SPR741 in combination)
0.25 µg/mL: MIC (A. baumannii UNT091-1; Acinetobacter baumannii, UNT0911, strain UNT091-1, rifabutin alone, rifabutin/SPR741 checkerboard, read-out: MICs alone)
128 µg/mL: MIC (A. baumannii 402608-17; [6]) | MIC (A. baumannii 402608-17; [7]) | MIC (A. baumannii 401255-18; [7])
0.03 mg/L: MICs combi (A. baumannii IHMA919656; [5])
> 32 µg/mL: MIC (A. baumannii IHMA867231; [8]) | MIC (A. baumannii 402608-17; [8]) | MIC (A. baumannii 401046-18; [8]) | MIC (A. baumannii 402292-17; [8]) | MIC (A. baumannii 401255-18; [8])
≥ 32 fold: shift in rifabutin MIC ([1]; in combination with colistin, isolates with a mutation in the rpoB gene)
4 mg/L: MICs combi (A. baumannii UNT238-1; [4]) | MICs combi (A. baumannii IHMA1013816; [9]) | MICs alone (A. baumannii UNT239-1; [7]) | MICs alone (A. baumannii UNT239-1; [8]) | MICs alone (A. baumannii HUMC1; [7]) | MICs alone (A. baumannii HUMC1; [8]) | MICs combi (A. baumannii HUMC1; [9]) | MICs combi (A. baumannii IHMA690517; [9]) | MICs alone (A. baumannii IHMA863866; [7]) | MICs alone (A. baumannii IHMA863866; [8]) | MICs combi (A. baumannii UNT087-1; strain UNT087-1, rifabutin/cefiderocol in combination) | MICs combi (A. baumannii 402292-17; strain 402292-17, rifabutin/colistin in combination, CA-MHB) | MICs combi (A. baumannii IHMA919656; [9]) | MICs alone [2, 7] | MICs alone [2, 8]
0.06 mg/L: MICs combi (A. baumannii IHMA690517; [5]) | MICs combi (A. baumannii IHMA863866; [5]) | MICs combi / in combination (A. baumannii UNT091-1; strain UNT091-1, rifabutin/SPR741 in combination) | MICs combi / in combination [2, 3]
1 mg/L: MICs combi (A. baumannii UNT239-1; [4]) | MICs combi (A. baumannii UNT239-1; [5]) | MICs combi (A. baumannii 401046-18; strain 401046-18, rifabutin/colistin in combination, CA-MHB) | MICs combi / in combination (A. baumannii IHMA690517; [3]) | MICs combi / in combination (A. baumannii IHMA919656; [3]) | MICs combi [2, 4]
0.016 mg/L: MICs combi [2, 5]
32 µg/mL: MIC (A. baumannii 401046-18; antibiotic alone, rifabutin/cefiderocol checkerboard, ID-CA-MHB) | MIC (A. baumannii 401255-18; [6])
> 128 µg/mL: MIC (A. baumannii IHMA867231; [6]) | MIC (A. baumannii IHMA867231; [7]) | MIC (A. baumannii 402292-17; [6]) | MIC (A. baumannii 402292-17; [7])
<0.03 mg/L: MICs combi (A. baumannii UNT191-1; strain UNT191-1, rifabutin/colistin in combination, CA-MHB) | MICs combi (A. baumannii UNT091-1; strain UNT091-1, rifabutin/colistin in combination, CA-MHB)
0.125 mg/L: MICs combi / in combination (A. baumannii UNT238-1; [3]) | MICs combi (A. baumannii IHMA1013816; [5]) | MICs combi (A. baumannii HUMC1; [5]) | MICs combi (A. baumannii IHMA863866; [9])
32 mg/L: MICs combi (A. baumannii 402608-17; strain 402608-17, rifabutin/cefiderocol in combination)
0.5 mg/L: MICs combi / in combination (A. baumannii UNT191-1; strain UNT191-1, rifabutin/SPR741 in combination) | MICs combi (A. baumannii UNT191-1; strain UNT191-1, rifabutin/cefiderocol in combination, ID-CA-MHB) | MICs combi (A. baumannii UNT087-1; strain UNT087-1, rifabutin/colistin in combination, CA-MHB) | MICs combi / in combination (A. baumannii ACC00535)
0.25 mg/L: MICs combi / in combination (A. baumannii UNT239-1; [3]) | MICs combi / in combination (A. baumannii HUMC1; [3]) | MICs combi / in combination (A. baumannii UNT087-1; strain UNT087-1, rifabutin/SPR741 in combination)
